# Reference: patent US12338266B2 (GENETIC S.P.A., priority 2019, dated 2025)
# Entries after “also recorded” stand apart in the source; their conditions may differ.
# Columns and labels:
# [1] = 10 mg orally once daily at bedtime; cited from earlier work
# [2] = biological target: T1, glucocorticoid receptor (Homo sapiens, UniProt P04150); conditions: higher than the parent compound; cited from earlier work
# T1 sequence (P04150 1-777): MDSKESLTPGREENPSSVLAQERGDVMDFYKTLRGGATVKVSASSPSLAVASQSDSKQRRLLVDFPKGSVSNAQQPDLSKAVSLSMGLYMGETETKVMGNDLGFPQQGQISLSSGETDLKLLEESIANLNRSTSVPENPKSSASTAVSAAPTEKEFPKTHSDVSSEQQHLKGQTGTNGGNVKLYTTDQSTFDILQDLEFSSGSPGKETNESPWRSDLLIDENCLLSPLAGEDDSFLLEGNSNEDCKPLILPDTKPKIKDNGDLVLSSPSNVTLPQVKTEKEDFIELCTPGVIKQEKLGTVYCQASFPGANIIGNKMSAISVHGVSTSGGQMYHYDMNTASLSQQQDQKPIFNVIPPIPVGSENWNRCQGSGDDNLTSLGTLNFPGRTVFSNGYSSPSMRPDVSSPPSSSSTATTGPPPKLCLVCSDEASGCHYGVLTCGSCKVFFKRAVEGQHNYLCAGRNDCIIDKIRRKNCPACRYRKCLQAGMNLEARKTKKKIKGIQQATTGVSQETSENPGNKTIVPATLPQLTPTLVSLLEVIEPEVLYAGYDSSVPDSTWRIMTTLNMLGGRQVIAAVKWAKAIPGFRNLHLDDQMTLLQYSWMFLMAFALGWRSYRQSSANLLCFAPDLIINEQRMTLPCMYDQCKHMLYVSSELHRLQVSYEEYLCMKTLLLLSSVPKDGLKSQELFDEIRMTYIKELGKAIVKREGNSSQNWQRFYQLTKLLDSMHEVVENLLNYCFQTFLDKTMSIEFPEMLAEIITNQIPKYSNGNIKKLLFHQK
# [3] = test system: mice with OVA-induced allergic asthma; test: Lung hyperreactivity / Penh by whole body plethysmography (Protocol-2); assay type: in vivo, Balb/c mice; conditions: for basal Penh measurement (non-challenged with methacholine): FIG. 9B
# Procedure: (§1) Male Balb/c SPF mice (26*2 g, 6 week-old) were purchased from the animal house facilities at the Faculty of Medicine (University of Sāo Paulo, Brazil). They were group-housed in a temperature-controlled room at 22° C. with a 12/12-hour light/dark cycle and allowed free access to food and water. The study is in agreement with the Ethical Principles for Animal Research established by the Brazilian College for Animal Experimentation (COBEA). According to the internal laboratory rules, euthanasia will be performed if severe distress related to the test agents developed during the experiment. Mice were sensitized with two subcutaneous injections of 0.2 ml of OVA/Al(OH)3, with an interval of 7 days (Sham animals received the Al(OH)3 suspension in PBS with no OVA). Chicken egg-white ovalbumin (OVA; grade V, cat. A5503, Sigma Chemical Co., St. Louis, Mo.) was dissolved in sterile phosphate buffered saline (PBS) solution (50 μg/ml) and Al(OH)3 was added (at 8 mg/ml). This mix was used to induce the allergic sensitization of the animals by subcutaneous injection. OVA was dissolved at 1% in sterile PBS solution and this solution was nebulized (as the immunological challenges). Seven days after the second sensitization (i.e., 3rd week), the animals were nebulized twice a week with the 1% OVA solution (Sham and untreated OVA groups were nebulized with PBS) during 20 minutes for the next 4 weeks. Thirty minutes before the challenges (OVA nebulization) and daily during the next 4 weeks, mice were intra-nasally treated (10 μl/animal as 5 μl/nostril) with the respective compounds/vehicle. […] Animals were killed at selected time points by overdose of enflurane and BAL and blood collected.
# Airway responsiveness in conscious, spontaneously breathing animals was measured at the end of the 6th week (i.e., after 4 weeks OVA challenges+treatments), 24 h after the last OVA/PBS challenge via whole body plethysmography (Buxco Europe Ltd, Winchester, UK). Experiments were carried out in a quiet room by an investigator who was unaware of the nature of treatments. Aerosolized saline (50 μl/mouse during 60 s) and then the muscarinic agonist metacholine (MCh) at increasing concentrations (3.12, 6.25, 12.5 and 25.0 mg/ml in PBS) was nebulized through an inlet of the main chamber for 3 min each to induce bronchoconstriction and readings were taken and averaged for 6 min following each nebulization. After 20 min. the baseline values usually returned at the end of this period. Enhanced pause (Penh) was measured as an indicator of bronchoconstriction and consequent increase of airway resistance as: Penh=[(expiration time/relaxation time)−1][…].
# [4] = intranasal administration at recommended doses; cited from earlier work
# [5] = test system: mice with OVA-induced allergic asthma; test: Total and differential leukocyte counts in BAL fluid (Protocol-2); assay type: in vivo, Balb/c mice; conditions: 4 weeks; for BAL eosinophils (OVA-induced increase): 100 nmol/animal/day intranasal, FIG. 10
# Procedure: as §1
# After Penh evaluation, the mice were anesthetized with inhaled isofluorane (5% v/v in O2) and blood samples were collected from the descending abdominal aorta. The mice were then euthanized by exsanguination and bronchoalveolar lavage (BAL) was performed by exposing and cannulating the trachea with a polyethylene tube (1 mm outer diameter) connected to a syringe. The lungs were washed by flushing 300 μL of heparin-containing PBS solution (20 UI/mL). The retrieved BAL lavage aliquots were obtained and the same procedure was repeated four additional times. The samples were centrifuged (1000 g for 10 min) and the cell pellet was resuspended in 200 μL of PBS solution, Total cell counts were determined using a Neubauer chamber, and differential counting was carried out in cytospin (Fanem Mod 2400; Sāo Paulo, Brazil) preparations stained with May-Grünwald dye. Leukocytes were classified based on morphological criteria.
# [6] = test system: mice with OVA-induced allergic asthma; test: Plasma IgE levels by ELISA in OVA-sensitized mice (Protocol-1); assay type: in vivo, Balb/c mice; conditions: 1 mg/kg i.p.; FIG. 6C, 7C
# Procedure: Balb/c mice (8-9 weeks old, Charles River, Calco, Italy) were housed in the animal care facility at the Department of Pharmacy of the University of Naples. Italy in a controlled environment (temperature 21±2° C. and humidity 60±10%) and provided with standard rodent chow and water. All animals were allowed to acclimate for four days prior to experiments and were subjected to 12 h light-12 h dark schedule. Each mouse was assigned an identity number and randomtzed to different groups so that all experiments were carried out in a blinded manner. The experimental procedures were approved by the Italian Ministry according to International and National law and policies (EU Directive 2010/63/EU and Italian DL 26/2014 for animal experiments, ARRIVE guidelines and the Basel declaration including the 3R concept). Animal studies are reported in compliance with the ARRIVE guidelines. Balb/c mice is the most widely mouse strain used to study asthma-like features in vivo and to investigate the undedying molecular and cellular mechanisms of allergen sensitization. Mice were treated subcutaneously (s.c.) with 0.4 mL (100 μg) of ovalbumin (OVA) complexed with alum (13 mg mL^−1) (OVA group) at day 0 and 7. Chicken egg-white ovalbumin (OVA: grade V. cat. A5503, Sigma Chemical Co., St. Louis, MO) was dissolved in sterile phosphate buffered saline (PBS) solution (250 μg/1 ml) and Al(OH)3 was added (at 13 mg/ml). This mix was used to induce the allergic sensitization of the animals by subcutaneous injection. OVA was dissolved at 3% in sterile PBS solution and this solution was nebulized (as the immunological challenges). At day 21 mice were exposed to OVA challenge for three days and then sacrificed. This experimental procedure induces in the mice an increase in plasma IgE levels and this effect is by itself sufficient to induce a significant increase in bronchial hyper-responsiveness and pulmonary inflammation, typical hallmarks of asthma. A group of animals was treated s.c. with saline (vehicle group). […] Animals were killed at selected time points by overdose of enflurane and bronchi and blood collected.
# Blood was collected by intracardiac puncture using citrate as anticoagulant. Plasma was obtained by centrifugation at 800×g at 4′C for 10 minutes and immediately frozen at −80° C. Total IgE levels were measured by means of ELISA using matched antibody pairs (BD Biosciences Pharmingen San Jose, Calif.).
# [7] = in vivo; cited from earlier work
smiles,measurement,setting,value
"CC(C)(O)c1ccccc1CC[C@@H](SCC1(CC(=O)[O-])CC1)c1cccc(/C=C/c2ccc3ccc(Cl)cc3n2)c1.[Na+] [Montelukast sodium, (R,E)-2-(1-((1-(3-(2-(7-chloroquinolin-2-yl)vinyl)phenyl)-3-(2-(2-hydroxypropan-2-yl)phenyl)propylthio)-methyl)cyclopropyl)acetic acid monosodium salt]","variables of asthma control (FEV1, daytime and night time symptom scores, as-needed β-agonist use)",[1],improvement in variables of asthma control
"C[C@]12C=CC(=O)C=C1CC[C@@H]1[C@@H]2[C@@H](O)C[C@@]2(C)[C@H]1C[C@H]1O[C@@H](C3CCCCC3)O[C@]12C(=O)CO [Des-ciclesonide, C21-desisobutyryl-ciclesonide]",affinity for the glucocorticoid receptor relative to the parent compound (ciclesonide),[2],120 times
"CC(C)C(=O)OCC(=O)[C@@]12O[C@H](C3CCCCC3)O[C@@H]1C[C@H]1[C@@H]3CCC4=CC(=O)C=C[C@]4(C)[C@H]3[C@@H](O)C[C@@]12C [ciclesonide, (11β,16α)-16,17-[[(R)-cyclohexylmethylene]bis(oxy)]-11-hydroxy-21-(2-methyl-1-oxopropoxy)pregna-1,4-diene-3,20-dione]","airway responsiveness, Penh (basal, methacholine Emax and AUC)","[3]; 100 nmol/day/animal intranasal, daily for 4 weeks, FIG. 8A-D",Significant reduction of this response; also recorded: significantly reduced
same,serum concentrations of ciclesonide,[4],negligible serum concentrations
same,BAL eosinophils (OVA-induced increase),[5],significantly reduced
same,BAL eosinophils (OVA-induced increase),[5]; listed as Ciclesonide,significantly reduced this increase
same,allergen induced plasma IgE increase,[6],significantly inhibited allergen induced IgE increase
same,cortisol suppression,[7],comparable with placebo
"CC(C)(O)c1ccccc1CC[C@@H](SCC1(CC(=O)O)CC1)c1cccc(/C=C/c2ccc3ccc(Cl)cc3n2)c1 [montelukast, (R,E)-2-(1-((1-(3-(2-(7-chloroquinolin-2-yl)vinyl)phenyl)-3-(2-(2-hydroxypropan-2-yl)phenyl)propylthio)-methyl)cyclopropyl)acetic acid]",basal Penh measurement (non-challenged with methacholine),"[3]; 10 nmol/animal/day intranasal, daily for 4 weeks",significantly reduced the basal Penh measurement
same,basal Penh measurement (non-challenged with methacholine),"[3]; 10 nmol/animal/day intranasal, daily for 4 weeks, listed as Montelukast",slightly decrease the basal (non-challenged with methacholine) response
same,"Penh parameters following methacholine challenge (Emax, AUC)","[3]; 10 nmol/animal/day intranasal, FIG. 9C-D",did not affect the parameters measured following methacholine challenge
same,direct effects on lung function,[3]; 10 nmol/day/animal intranasal,negligible direct effects on lung function
same,BAL eosinophils / eosinophil recruitment to the lungs,"[5]; 10 nmol/animal/day intranasal, FIG. 11",significantly reduced; also recorded: significant inhibitory effects on eosinophil recruitment to the lungs
same,allergen induced plasma IgE increase,[6],did not affect IgE
